{"source": "patent US20130085109A1", "about": "“METHODS OF CARDIOVASCULAR PATIENT TREATMENT USING SUBSTANCES SUFFICIENT TO REDUCE ACTIN DEPOLYMERIZATION” (priority 2008, published 2013)", "key": {"carotid artery wall": {"tested_on": "carotid artery wall", "test": "Superoxide in carotid artery wall by dihydroethidine fluorescence (laser confocal microscopy) after flow reversal", "assay_type": "in vivo", "conditions": "apocynin 1 mM in drinking water concurrently with carotid flow reversal; vs flow reversal without apocynin", "procedure": "The carotid arteries of animals were removed and examined by laser confocal microscopy excitation (514 nm; emission, 605 nm; Objective, 40x. C.3.a. Visualization of NO and O2-Using Fluorescence) following perfusion under conditions of: Control (C), Flow Reversal (FR), and Apocynin+Flow Reversal (AC). The apocynin was administered in drinking water (1 mM) to an animal concurrently with carotid flow reversal. Dihydroethidine (DHE), a fluorescent dye, was used to indicate superoxide in arterial wall."}, "[1]": {"tested_on": "carotid artery with reverse flow", "test": "Superoxide measurement (L012 luminescence) in carotid arteries after in vivo reverse flow with drug treatment", "parameters": "species or system swine", "source_text": "To create a full reverse flow, and as part of an exemplary system 100 of the present disclosure, two tubes 102, such as two pieces of silicone tubing, were inserted into the two respective ends of the isolated vessel segment 104 as shown in FIGS. 1A and 1B. In at least one embodiment, tubes 102 are configured to fit within a portion of isolated vessel segment 104, and in at least another embodiment, tubes 102 are configured so surround the ends of vessel segment and are held in place with a connector (not shown). […]\nThe harvested vessels (vessel segments 104) were cut into small rings at approximately 3 mm in length in 37° C. […] The L012 (100 μM) was added last and the luminescence was recorded for 60 minutes at 1 minute intervals using a plate reader from Perkin Elmer (En vision Xcite Multilabel Reader, Perkin Elmer, Shelton, Conn.) at ultra-luminecent mode. […]\nSamples were obtained from carotid arteries with forward (solid bar) or reverse (empty bar) flow (FF or RF, respectively) or reverse flow plus jasplakinolide (Jasp) treatment (lined bar). The basal level of superoxide measured under forward flow condition was taken as 100%, and all other measurements were expressed as percentage to the basal level. Each measurement was performed in triplicate and data were expressed as mean±1SD. […]"}, "NADPH oxidase": {"tested_on": "NADPH oxidase", "test": "NADPH oxidase activity assay in subcellular membrane preparations of vessels", "assay_type": "in vivo, swine", "procedure": "(§1) In some experiments (n=3), the carotid arteries were treated with jasplakinolide to stablize the actin. […] The right side vessel 114 was filled with saline and served as control. The reverse or forward flows were then ensured for 2 hrs (for superoxide measurement) or 4 hrs (for NADPH oxidase measurment by western blot) after clamps 116, 118 were released. A low concentration of jasplakinolide was used, which was sufficient to stabilize actin and to avoid possible non-specific effects at high concentration. […]\nStored samples were placed in ice cold lysis buffer containing 20 mM KH2PO4, 1 mM EGTA and protease inhibitor cocktail (Sigma-Aldrich, St. Louis, Mo.) and homogenized with an electric homogenizer (Power Gen 35, Fisher Scientific) for 20 seconds each. […] The enzyme activity was determined in 200 μl assay buffer at pH7.4 containing the following (in mM): HEPES, 25; NaCl, 120; KCl, 5.9; MgSO4, 1.2; CaCl2, 1.75; glucose, 11; β-NADPH, 0.1; and L012, 0.1. The reaction started by adding 10 μL of homogenate, and the luminescence was measured every 15 seconds for 5 minutes by Perkin Elmer plate reader at ultra-sensitive mode. The protein concentration was determined by BCA kit (Bio-Rad) and the results of enzyme activity were standardized to protein level of each sample. […]"}, "[2]": {"tested_on": "carotid artery rings (endothelial cells)", "test": "Superoxide measurement (L012 luminescence) in carotid artery rings treated in vitro", "assay_type": "cell-based, swine", "procedure": "For superoxide measurements, carotid arteries (vessel segments 104) from both sides were quickly removed and placed into a heated (37° C.) chamber filled with HEPES buffered PSS containing (in mM): D-glucose, 5.5; KCl, 4.7; NaCl, 142; HEPES sodium salt, 2.7; MgSO4, 1.17; CaCl2, 2.79; at pH 7.4. For NADPH oxidase activity assays or protein expression measurements by western blot, the left and right carotid arteries were removed and saved in a −80° C. freezer until analysis.\nThe harvested vessels (vessel segments 104) were cut into small rings at approximately 3 mm in length in 37° C. HEPES PSS buffer. The rings were first transferred into […] with HEPES-PSS and incubated at 37° C. for 5 minutes. Various compounds [cytochalason D, latrunculin B, jasplakinolide, and phorbol 2-myrisate 13-acetate (PMA)] were then added into each well for treatment. The L012 (100 μM) was added last and the luminescence was recorded for 60 minutes at 1 minute intervals using a plate reader from Perkin Elmer (En vision Xcite Multilabel Reader, Perkin Elmer, Shelton, Conn.) at ultra-luminecent mode. The total reaction volume was 200 μl. After each recording, the sample rings were air dried and weighed. Each condition was tested in triplicate. To remove the endothelial cells, the vessel ring was gently rubbed against the tip of a pair of forceps.\nBasal superoxide production was detected in the carotid artery (vessel segment 104) samples obtained from control animals with forward blood flow as shown in FIG. 2A. Rings were incubated with or without treatments of cytochalasin D (cyt D), latrunculin (Latru) or jasplakinolide (Jasp) and the superoxide production were recorded using plate reader at ultrasensitive mode for luminescence to generate the results shown in FIG. 2A. The luminescence recorded from rings without treatment was considered at base level and taken as 100%. The luminescence recorded under other conditions was expressed as percentage of base level. The superoxide production induced by PMA was used as positive control as identified in FIG. 2B. Each condition was tested in triplicate from each animal. The significance of increased superoxide production was test using ANOVA (p=0.004 for cytochalasin D, n=10 and p=0.044 for Latrucillin, n=3), and the data are mean±1SD."}, "[3]": {"tested_on": "actin in carotid artery endothelial cells", "test": "Actin immunostain (Alexa Fluor488-phalloidin) of carotid artery rings, in vitro actin depolymerization", "assay_type": "cell-based, swine", "conditions": "10 μM cytochalasin D, 30 minutes, 37° C.", "procedure": "For actin staining, vessels under different conditions were cut into 4 mm rings and immediately fixed for 2 hours in 4% methanol-free formaldehyde-PBS solution (Thermo Scientific, Rockford, Ill.). For in vitro actin depolymerization immunochemistry, 3 to 4 mm carotid artery ring from control animal were incubated with 10 μM cytochalasin D for 30 minutes. Samples were fixed for 2 hours and then processed for actin staining.\nThe fixed samples were permeablized by 0.1% tritonX-PBS solution. After non-specific sites were blocked by 1% BSA in PBS, actin was labled by incubating samples with Alexa Fluor488-phalloidin (Invitrogen, Carlsbad, Calif.) for 30 minutes at room temperature. After labeling, each sample was cut into a 3×3 mm piece and mounted on glass slide and covered with a glass cover slip in the presence of 70% glyceral-PBS and sealed with glue. The samples were observed under a Zeiss confocal microscope (Zeiss 510 meta) and images were captured under 100× objective oil lens with excitation at 488 nm and emission at BP 500-530 nm.\nAll samples were viewed under confocal microscopy (Zeiss 510 meta) with 100× objective with excitation at 488 nm and Emission at BP 500-530 nm."}, "p47phox": {"tested_on": "p47phox", "test": "p47phox phosphorylation (phosphoserine immunoprecipitation and western blot), in vitro", "assay_type": "cell-based, swine", "conditions": "cytochalasin D treatment in vitro; p<0.05", "procedure": "For p47^phox phosphorylation measurements, the total protein with phosphoserine was first immunoprecipitated according to a known method. Briefly, samples were first incubated with rabbit polyclonal antibody to phosphoserine (Abcam, Cambridge, Mass.) for 2 hours at 4° C. Samples were then mixed with Protein G PLUS-Agarose (Santa Cruz Biotechnology, Santa Cruz, Calif.) and incubated overnight at 4° C. Samples were then centrifuged and washed three times with lysis buffer. The pellet was resuspended in loading buffer and denatured. The p47^phox was then measured by western blot.\nP47^phox phosphorylation was examined further to understand the molecular basis for increased superoxide production subsequent to actin depolymerization and flow reversal, as shown in FIGS. 7A-7D. The phosphorylated P47^phox was standardized by total P47^phox. The level of phosphorylated P47^phox at basal level in vitro (FIG. 7A) or under forward flow (FF) condition in vivo (FIG. 7C) were taken as 100% and the level of phosphorylated P47^phox after cytochalasin D treatment or under reversed flow (RF) condition were expressed as percent thereof. […] The data are mean and SD of at least three experiments from different animals (*p<0.05)."}, "[4]": {"tested_on": "actin in carotid artery endothelial cells", "conditions": "reported previously; cited from earlier work"}, "gp91phox and p47phox": {"tested_on": "gp91phox and p47phox", "test": "Western blot for NADPH oxidase expression", "assay_type": "in vivo, swine", "conditions": "jasplakinolide, four hours of treatment", "procedure": "as §1\nThe artery segments were homogenized in the lysis buffer containing 50 mM glycerophosphate, 100 μM sodium orthovanadate, 2 mM magnesium chloride, 1 mM EGTA, 0.5% Triton X-100, 1 mM DL-dithiothreitol, 20 μM pepstatin, 20 μM leupeptin, 0.1 U/ml aprotinin, and 1 mM phenylmethylsulfonyl fluoride and then incubated on ice for 1 hour. […] The total protein was measured by a BCA kit (Bio-Rad). […]\nThe NADPH oxidase activity was examined using an enzyme assay in subcellular membrane prepared from vessels with different flow conditions. […] The data are expressed as ratio of enzyme activity measured in vessel from reverse flow (RF) or reverse flow with jasplakinolide (RF-Jasp) treatment vs forward flow (FF). […] The data are expressed as ratio of protein band density of reversed flow sample versus that from forward flow sample."}, "[5]": {"tested_on": "porcine femoral artery preparation", "test": "NO metabolite (nitrite) production in perfused porcine femoral artery preparation, forward and reverse flow", "conditions": "tempol added to perfusate", "procedure": "A purfusate was passed through an in vitro porcine femoral artery preparation in the forward and reverse flow directions and the levels of NO metabolite (nitrite) were measured at various flowrates in the forward and reverse directions. Thereafter, tempol was added to the perfusate and the levels of NO metabolite (nitrite) were again measured at various flowrates in the forward and reverse directions. […] The asterisk denotes statistical significance by ANOVA analysis between groups at the respective flows (P<0.05)."}}, "data": [{"molecule": "COc1cc(C(C)=O)ccc1O", "note": "[apocynin, 4-hydroxy-3-methoxy-acetophenone]", "values": [{"measurement": "amount of superoxide present in artery wall (DHE fluorescence)", "setting": "carotid artery wall", "value": "reduced the amount of superoxide"}, {"measurement": "reversed flow induced superoxide production", "setting": "[1]; apocynin bolus 4 mg/kg i.v. then 3.5 μg/kg/min i.v.", "value": "abolished"}, {"measurement": "NADPH oxidase enzyme activity", "setting": "NADPH oxidase; samples from animals treated with apocynin", "value": "reduced"}]}, {"molecule": "C=C1[C@@H](C)[C@H]2[C@H](Cc3ccccc3)NC(=O)[C@]23[C@H](OC(C)=O)/C=C/[C@@](C)(O)C(=O)[C@@H](C)C/C=C/[C@H]3[C@@H]1O", "note": "[cytochalasin D]", "values": [{"measurement": "increase of superoxide production vs untreated samples", "setting": "[2]; 10 μM cytochalasin D, artery samples under normal forward flow", "value": "about 5 fold"}, {"measurement": "superoxide production in vessel with reverse flow", "setting": "[2]; cytochalasin D added to samples from reverse flow vessel", "value": "further increase"}, {"measurement": "actin filament pattern", "setting": "[3]", "value": "significant disruption of actin filaments"}, {"measurement": "p47phox phosphorylation vs untreated sample", "setting": "p47phox", "value": "increased"}, {"measurement": "cytochalasin D concentration at which all long actin filament bundles were disrupted and replaced by focal aggregates of F-actin", "setting": "[4]", "value": "≥ 2", "unit": "µM"}, {"measurement": "cytochalasin D concentration at which changes of actin cytoskeleton were visible", "setting": "[4]", "value": 20, "unit": "nM"}]}, {"molecule": "C/C1=C\\[C@H](C)C[C@H](C)OC(=O)C[C@H](c2ccc(O)cc2)NC(=O)[C@@H](Cc2c(Br)[nH]c3ccccc23)N(C)C(=O)[C@H](C)NC(=O)[C@@H](C)C1", "note": "[jasplakinolide]", "values": [{"measurement": "superoxide level vs untreated samples", "setting": "[2]; 0.1 μM jasplakinolide, artery samples under normal forward flow", "value": "not changed"}, {"measurement": "increase of superoxide production on reversed blood flow", "setting": "[1]; vessel prefilled with 0.1 μM jasplakinolide 10 minutes, reverse flow 2 hrs", "value": "prevented"}, {"measurement": "NADPH oxidase activity in vessel with reversed flow vs untreated vessel", "setting": "NADPH oxidase; jasplakinolide treatment (0.1 μM prefill)", "value": "decreased"}, {"measurement": "expression of NADPH oxidase subunits gp91phox and p47phox", "setting": "gp91phox and p47phox", "value": "not changed"}]}, {"molecule": "C/C1=C/C(=O)O[C@@H]2C[C@@H](CC[C@H](C)/C=C\\CC1)O[C@@](O)([C@@H]1CSC(=O)N1)C2", "note": "[latrunculin, latrunculin B]", "values": [{"measurement": "increase of superoxide production vs untreated samples", "setting": "[2]; 1 μM latrunculin, artery samples under normal forward flow", "value": "~2", "unit": "fold"}]}, {"molecule": "CC1(C)CC(O)CC(C)(C)N1[O]", "note": "[tempol, 4-hydroxy-2,2,6,6-tetramethyl-4-piperidine-N-oxyl]", "values": [{"measurement": "NO production (NO metabolite nitrite)", "setting": "[5]; forward flow", "value": "did not cause a statistically significant increase"}, {"measurement": "NO production (NO metabolite nitrite)", "setting": "[5]; reverse flow, P<0.05", "value": "did significantly increase"}]}]}
